Results reported in publication PMC8829872 (Cancer chemotherapy and pharmacology, 2022).
Read-outs that look alike come from different tables or passages of the source.

Assays:
[1] = Intestinal contribution to oral bioavailability (hepatic and gut contributions calculated from IV PK); assay type: in vivo, mice; conditions: 10 mg/kg IV
Experimental: The contribution of gut to oral bioavailability was estimated by calculating the contribution of liver processes to bioavailability from IV data and stripping this contribution from the observed bioavailabilities. Assuming IV drug clearance was restricted to hepatic processes, the predicted bioavailability based solely on liver processes, FH, was calculated from IV PK. […] Fe was derived from the amount of drug measured in urine (Ae) and the total amount of drug administered, see Eq. (7). ClBlood was defined by multiplying the observed plasma clearance (Clplasma) by the ratio of plasma exposure (AUCplasma) to total blood exposure (AUCBlood), see Eq. (8). AUCBlood was calculated using hematocrit (HCT) to construct total blood exposure contributions from exposure in RBC (AUCRBC) and plasma, see Eq. (9).

[2] = Unified compartmental PK model (ADAPT5); set-up: species or system mice; conditions: for bioavailability: Balb/c, mouse, plasma, read-out: Model F (compartmental bioavailability)
Experimental: A unified compartmental PK model was developed using ADAPT5 [28] to fit the data, […]. Naïve-pooled concentration-time data from each study was used to estimate PK parameters that were shared between each treatment group. Model performance was determined and reported using parameter CV%, R^2, AIC (Akaike information criterion), as well as visually inspected with standardized residual plots. […] The amount of drug ultimately collected in this compartment allowed for calculation of the bioavailability. The developed model was then used to simulate expected plasma concentrations in the extensive PK study. Separately, tumor and plasma time concentration data from the extensive PK study was used to extend this model to add an uncoupled tumor compartment.

[3] = mouse, in vivo
Experimental: The vehicle for all groups was 10% DMSO, 40% propylene glycol, and 50% dH2O. […] Mice were euthanized by CO2 inhalation and the following tissues collected: blood, liver, kidney, lung, skeletal muscle, and brain.
Duplicate standard curves with calibrators consisting of 0.3, 1, 3, 10, 30 100, 300, and 1,000 ng/mL, in addition to blank plasma, were prepared fresh on days of analysis using control Balb/c mouse plasma (Innovative Research, Novi, MI). QCs were prepared in bulk and stored at −80 °C, with concentrations of 0.8 (QCL), 20 (QCM), and 800 ng/mL (QCH). […] The injection volume was 3 μL. […] Curve fitting was accomplished through linear regression with 1/y^2 weighting. Semi-quantitation of metabolites was accomplished by reporting IS normalized metabolite response.
Noncompartmental (NC) PK was determined using GraphPad Prism (San Diego, CA) using the linear trapezoidal method and Bailer method of AUC determination for estimates of exposure in plasma, RBC, tumors, and tissues [24]. PK parameters or analysis requiring dose were adjusted for the actual dose as determined using measurements of dosing solution. Dose-normalized plasma exposures, Cmax and AUC, of PO treated groups of the dose linearity studies were compared using ANOVA tests to determine dose linearity.
Tissue partition coefficients (PTissue) and RBC partitioning (PRBC) were calculated using Eq. (1) and tested among PO treated groups using ANOVA tests.
The resulting concentrations were multiplied by the volume or weight to convert to a total amount and then divided by 3 to account for the number of mice per cage. These amounts were then divided by the average total amount of drug administered to calculate the percent excreted by urine and feces, see Eq. (2). Renal clearance (ClR) was calculated by dividing the excreted amount by the plasma AUC, see Eq. (3) [25].
When available, plasma metabolite data was used to determine semi-quantitative exposure as well as metabolic ratios, using Eq. (4). The MR among PO treated groups in the dose linearity studies were compared using ANOVA testing. Metabolite presence was also analyzed in urine and feces.

[4] = test system: human liver microsomes (HLMs); conditions: cited from earlier work
[5] = extensive PK study, model with uncoupled tumor compartment
[6] = non-linear model, dose linearity and bioavailability studies

## C[C@@H]1COCCN1c1cc(C2([S@](C)(=N)=O)CC2)nc(-c2cc[nH]c3nccc2-3)n1 [AZD6738]
[1]
  ClBlood: 0.550 mL/min
[1]; urine
  Amount excreted, Ae: 4.00 µg
  Fraction excreted, Fe: 0.0191
[1]; Balb/c, plasma, average mouse size 18.3 g, read-out: ClPlasma
  clearance: 0.634 mL/min
[2]; 2 mg/kg PO
  bioavailability: 40.4%
[2]; 7.5 mg/kg PO
  bioavailability: 61.5%
[2]; 20 mg/kg PO
  bioavailability: 80.4%
[2]; 75 mg/kg PO
  bioavailability: 90.8%
[2]; [5]
  Ka (fixed to dose linearity model estimate): 0.234 min⁻¹
  Kct (model estimate): 0.325 min⁻¹
  Ktc (model estimate): 0.0537 min⁻¹
  Vc (model estimate): 5.04 L/kg
[2]; [6]
  Ka (model estimate): 0.234 min⁻¹
  Km (model estimate, pre-systemic saturable efflux/metabolism): 157 ng
  Kna (model estimate): 0.0120 min⁻¹
  Vc (model estimate): 1.91 L/kg
  Vmax (model estimate, pre-systemic saturable efflux/metabolism): 1238 ng/min
  Vp (model estimate): 2.61 L/kg
[3]; Balb/c
  Renal excretion of unaltered drug: < 4 % of dose
[3]; Balb/c, po
  decrease of apparent clearance (Cl/F/kg): approximately 50%
  decrease of apparent volume of distribution (Vd/F/kg): approximately 50%
  excreted unchanged in the feces: 9.2-15.7 % of dose
[3]; Balb/c, po, 2 mg/kg
  Cl: 75.7 mL/min/kg
  Vd: 11.4 L/kg
[3]; Balb/c, po, 7.5 mg/kg
  Cl: 58.8 mL/min/kg
  Vd: 11.0 L/kg
[3]; Balb/c, po, 20 mg/kg
  Cl: 40.4 mL/min/kg
  Vd: 5.50 L/kg
[3]; Balb/c, po, 75 mg/kg
  Cl: 36.3 mL/min/kg
  Vd: 6.06 L/kg
[3]
  Partitioning to lung, PO groups compared to the IV group: approximately two-fold higher
  Penetration into the brain: limited
[4]
  enzymes of oxidative deimination to the primary sulfoxide metabolite: CYP2C8/2J2
